“Also recorded” adds a separate entry of the source.
Key:
[1] = target: ZIKV NS2B-NS3pro (Zika virus, UniProt A0A024B7W1); test: Fluorescent peptide; format: biochemical; details: read-out: IC50, ZIKV cleavage activity; Fig. 4A
[2] = target: Furin (Homo sapiens, UniProt P09958); test: Fluorescent peptide; format: biochemical; details: read-out: In vitro IC50, Furin; 20 nM enzyme, 20 μM Pyr-RTKR-AMC
[3] = system: Fetal human NPCs; format: cell-based
[4] = system: ZIKV (Asian strain, FSS13025); test: ZIKV infection of human fetal neural progenitor cells; format: cell-based, Zika virus; details: compound up to 100 μM; for Inhibition of ZIKV infection of hfNPCs (in words): MOI 0.1, 4 days; for Cytotoxicity in hfNPCs (in words): Fig. 7A
[5] = design: species or system mice; details: mouse, in vivo, ip, 10 mg/kg

Chain of Furin (P09958 108-794): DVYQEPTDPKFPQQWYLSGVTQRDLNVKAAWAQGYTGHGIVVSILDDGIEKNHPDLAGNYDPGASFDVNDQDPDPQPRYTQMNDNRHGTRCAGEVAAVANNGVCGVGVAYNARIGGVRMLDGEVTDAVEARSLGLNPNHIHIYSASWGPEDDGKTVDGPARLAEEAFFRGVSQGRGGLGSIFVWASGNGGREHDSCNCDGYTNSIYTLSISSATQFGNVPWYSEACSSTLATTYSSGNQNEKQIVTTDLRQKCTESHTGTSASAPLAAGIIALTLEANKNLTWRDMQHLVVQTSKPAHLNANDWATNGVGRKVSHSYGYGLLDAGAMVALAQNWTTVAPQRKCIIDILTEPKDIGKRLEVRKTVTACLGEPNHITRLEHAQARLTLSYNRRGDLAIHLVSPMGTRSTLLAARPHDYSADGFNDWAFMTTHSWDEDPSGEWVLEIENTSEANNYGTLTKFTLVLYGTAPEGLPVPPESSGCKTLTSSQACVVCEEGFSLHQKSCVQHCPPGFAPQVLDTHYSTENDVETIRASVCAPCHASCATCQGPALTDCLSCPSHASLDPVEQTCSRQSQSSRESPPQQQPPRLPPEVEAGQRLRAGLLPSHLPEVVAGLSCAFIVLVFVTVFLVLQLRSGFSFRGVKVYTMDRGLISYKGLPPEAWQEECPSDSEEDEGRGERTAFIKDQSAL

| Compound | IC50 [1] [nM] | IC50 [2] [µM] | Cytotoxicity (TC50) [3] [µM] | Inhibition of ZIKV infection of hfNPCs (in words) [4] | Cytotoxicity in hfNPCs (in words) [4] | Plasma half-life [5] |
| --- | --- | --- | --- | --- | --- | --- |
| aprotinin | ~70 | – | – | – | – | – |
| Fc1cc(C2=Nn3c(COc4ccc(Cl)cc4Cl)nnc3S/C2=C\c2ccc(-c3ccc(Cl)cc3)o2)c(Cl)cc1Cl [NSC719147] | – | > 100 | 160.3 | – | – | – |
| Clc1ccc(-c2nn3c(COc4cccc(OCc5nnc6sc(-c7ccc(Cl)cc7)nn56)c4)nnc3s2)cc1 [NSC716903] | – | > 100 | 127.8 | little or no inhibition | more cytotoxic | – |
| Nc1cc(N)c(N=Nc2ccc(S(=O)(=O)Nc3nccs3)cc2)cc1N=Nc1ccc(S(=O)(=O)Nc2nccs2)cc1 [NSC86314] | – | > 100 | 212.5 | little or no inhibition | more cytotoxic | – |
| CC(=O)C(N=Nc1ccc(S(=O)(=O)Nc2ccccn2)cc1)C(=O)Nc1ccc(Cl)cc1 (stereo not drawn) [NSC134189] | – | > 100 | 132.3 | – | – | – |
| Clc1cc(OCc2nnc3sc(Cc4ccccc4)nn23)c(Cl)cc1OCc1nnc2sc(Cc3ccccc3)nn12 [NSC716898] | – | > 100 | 235.8 | – | – | – |
| Clc1nc2n[nH]nc2nc1Cl [NSC157058] | – | > 100 | 257.4 | – | without demonstrating significant cytotoxicity; also recorded: without significant cellular toxicity | ~ 20 min |
| Clc1ccc(-c2nn3c(COc4cc(Cl)c(OCc5nnc6sc(-c7ccc(Cl)cc7)nn56)cc4Cl)nnc3s2)cc1 [NSC716897] | – | > 100 | 178.4 | – | – | – |

— paper PMC5558795 (Antiviral research, 2017)
